Experimental data reported in the NIST ThermoML archive (doi:10.1016/j.tca.2015.04.021).
± gives the expanded uncertainty stated by the source.

Assay: molar enthalpy of vaporization or sublimation
Conditions: Liquid, TGA

For `Cn1cc[n+](CCC(F)(F)C(F)(F)C(F)(F)C(F)(F)C(F)(F)C(F)(F)F)c1.O=S(=O)([N-]S(=O)(=O)C(F)(F)F)C(F)(F)F`, the molar enthalpy (532.3 K) was 30.1 ± 0.669 kcal/mol.
Work on `Cn1cc[n+](CCC(F)(F)C(F)(F)C(F)(F)C(F)(F)C(F)(F)C(F)(F)C(F)(F)C(F)(F)F)c1.O=S(=O)([N-]S(=O)(=O)C(F)(F)F)C(F)(F)F` yielded a molar enthalpy (531.8 K) of 30.5 ± 0.669 kcal/mol.
`Cn1cc[n+](CCC(F)(F)C(F)(F)F)c1.O=S(=O)([N-]S(=O)(=O)C(F)(F)F)C(F)(F)F` gave a molar enthalpy (527.7 K) of 27.2 ± 0.621 kcal/mol.
